In patent publication US9273040B2 (Merck Sharp & Dohme Corp., priority 2011, dated 2016):

Legend:
[1] = molecular target: T1, human Nav1.5 channels stably expressed in HEK 293 cells (Homo sapiens, UniProt Q14524); assay: PatchXpress 7000 automated patch-clamp, sodium current; assay type: cell-based; settings: selectivity over Nav1.5
T1 construct: expressed in transfected cells
Summary of the method: (§1)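 IC50 values came from Hill-equation fits of rundown-corrected inhibition. PatchXpress recordings at 22° C held cells 20 mV negative to V0.5 inact and applied 10 Hz trains of 30 ms steps to −20 mV (Nav1.7) or an 8000 ms prepulse 7 mV positive to V0.5 inact. […]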

[2] = molecular target: T2, human Nav1.7 channels stably expressed in HEK 293 cells (Homo sapiens, UniProt Q15858); assay: as above; assay type: cell-based; settings: 22° C., read-out: potency for the Nav 1.7 sodium ion channel (as measured by PatchXpress)
T2 construct: expressed in transfected cells
T2 sequence (Q15858 whole entry): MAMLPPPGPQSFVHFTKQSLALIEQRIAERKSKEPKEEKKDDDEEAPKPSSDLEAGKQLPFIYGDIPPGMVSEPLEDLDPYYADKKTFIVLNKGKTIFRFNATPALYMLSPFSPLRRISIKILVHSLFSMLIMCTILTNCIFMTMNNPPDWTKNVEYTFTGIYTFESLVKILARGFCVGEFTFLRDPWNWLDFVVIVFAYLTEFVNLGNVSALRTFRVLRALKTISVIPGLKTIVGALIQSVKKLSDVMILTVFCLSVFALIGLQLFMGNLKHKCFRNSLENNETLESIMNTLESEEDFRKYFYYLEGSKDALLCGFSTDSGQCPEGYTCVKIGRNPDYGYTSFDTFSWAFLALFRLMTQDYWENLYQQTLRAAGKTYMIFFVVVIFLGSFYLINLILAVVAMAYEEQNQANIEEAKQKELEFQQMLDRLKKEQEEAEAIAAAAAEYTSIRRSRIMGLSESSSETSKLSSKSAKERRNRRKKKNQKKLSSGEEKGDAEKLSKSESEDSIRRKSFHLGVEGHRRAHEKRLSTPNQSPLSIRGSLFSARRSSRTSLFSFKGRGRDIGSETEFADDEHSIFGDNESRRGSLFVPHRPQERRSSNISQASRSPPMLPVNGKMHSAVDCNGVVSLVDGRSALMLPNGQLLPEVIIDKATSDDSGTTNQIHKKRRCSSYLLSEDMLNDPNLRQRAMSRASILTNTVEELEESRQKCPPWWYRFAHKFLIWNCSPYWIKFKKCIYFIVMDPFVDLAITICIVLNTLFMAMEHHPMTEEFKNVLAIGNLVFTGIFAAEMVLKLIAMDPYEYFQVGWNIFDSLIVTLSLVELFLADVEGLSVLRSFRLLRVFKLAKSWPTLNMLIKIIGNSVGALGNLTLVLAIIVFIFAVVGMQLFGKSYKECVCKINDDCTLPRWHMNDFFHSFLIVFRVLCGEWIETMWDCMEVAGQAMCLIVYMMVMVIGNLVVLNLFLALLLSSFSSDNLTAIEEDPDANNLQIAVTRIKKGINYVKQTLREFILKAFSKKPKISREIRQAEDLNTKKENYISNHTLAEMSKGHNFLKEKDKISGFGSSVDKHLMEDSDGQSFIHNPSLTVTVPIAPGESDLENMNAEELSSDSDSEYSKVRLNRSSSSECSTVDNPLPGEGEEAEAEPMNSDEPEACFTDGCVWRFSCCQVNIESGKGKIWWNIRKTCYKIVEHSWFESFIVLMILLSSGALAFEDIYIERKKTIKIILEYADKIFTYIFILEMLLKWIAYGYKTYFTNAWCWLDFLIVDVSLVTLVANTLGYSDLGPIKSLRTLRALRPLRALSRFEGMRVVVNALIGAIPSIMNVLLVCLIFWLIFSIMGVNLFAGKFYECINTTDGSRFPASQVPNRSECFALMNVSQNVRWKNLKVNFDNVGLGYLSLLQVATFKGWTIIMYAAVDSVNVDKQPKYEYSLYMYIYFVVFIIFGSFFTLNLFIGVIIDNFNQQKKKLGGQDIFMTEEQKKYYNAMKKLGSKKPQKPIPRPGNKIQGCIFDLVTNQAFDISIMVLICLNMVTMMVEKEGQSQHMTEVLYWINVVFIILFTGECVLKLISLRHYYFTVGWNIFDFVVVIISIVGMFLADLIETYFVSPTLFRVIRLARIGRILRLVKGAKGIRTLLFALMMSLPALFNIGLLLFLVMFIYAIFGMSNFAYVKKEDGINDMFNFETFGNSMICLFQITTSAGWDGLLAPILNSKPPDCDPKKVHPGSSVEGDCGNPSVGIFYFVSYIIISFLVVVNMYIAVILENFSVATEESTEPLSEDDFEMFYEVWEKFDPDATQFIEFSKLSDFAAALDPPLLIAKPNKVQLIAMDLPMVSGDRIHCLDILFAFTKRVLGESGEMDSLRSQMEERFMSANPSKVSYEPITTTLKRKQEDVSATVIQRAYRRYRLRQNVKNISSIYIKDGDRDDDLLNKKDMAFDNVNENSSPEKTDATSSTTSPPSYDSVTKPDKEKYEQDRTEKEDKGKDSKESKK
Summary of the method: as §1

T1 sequence (Q14524 whole entry): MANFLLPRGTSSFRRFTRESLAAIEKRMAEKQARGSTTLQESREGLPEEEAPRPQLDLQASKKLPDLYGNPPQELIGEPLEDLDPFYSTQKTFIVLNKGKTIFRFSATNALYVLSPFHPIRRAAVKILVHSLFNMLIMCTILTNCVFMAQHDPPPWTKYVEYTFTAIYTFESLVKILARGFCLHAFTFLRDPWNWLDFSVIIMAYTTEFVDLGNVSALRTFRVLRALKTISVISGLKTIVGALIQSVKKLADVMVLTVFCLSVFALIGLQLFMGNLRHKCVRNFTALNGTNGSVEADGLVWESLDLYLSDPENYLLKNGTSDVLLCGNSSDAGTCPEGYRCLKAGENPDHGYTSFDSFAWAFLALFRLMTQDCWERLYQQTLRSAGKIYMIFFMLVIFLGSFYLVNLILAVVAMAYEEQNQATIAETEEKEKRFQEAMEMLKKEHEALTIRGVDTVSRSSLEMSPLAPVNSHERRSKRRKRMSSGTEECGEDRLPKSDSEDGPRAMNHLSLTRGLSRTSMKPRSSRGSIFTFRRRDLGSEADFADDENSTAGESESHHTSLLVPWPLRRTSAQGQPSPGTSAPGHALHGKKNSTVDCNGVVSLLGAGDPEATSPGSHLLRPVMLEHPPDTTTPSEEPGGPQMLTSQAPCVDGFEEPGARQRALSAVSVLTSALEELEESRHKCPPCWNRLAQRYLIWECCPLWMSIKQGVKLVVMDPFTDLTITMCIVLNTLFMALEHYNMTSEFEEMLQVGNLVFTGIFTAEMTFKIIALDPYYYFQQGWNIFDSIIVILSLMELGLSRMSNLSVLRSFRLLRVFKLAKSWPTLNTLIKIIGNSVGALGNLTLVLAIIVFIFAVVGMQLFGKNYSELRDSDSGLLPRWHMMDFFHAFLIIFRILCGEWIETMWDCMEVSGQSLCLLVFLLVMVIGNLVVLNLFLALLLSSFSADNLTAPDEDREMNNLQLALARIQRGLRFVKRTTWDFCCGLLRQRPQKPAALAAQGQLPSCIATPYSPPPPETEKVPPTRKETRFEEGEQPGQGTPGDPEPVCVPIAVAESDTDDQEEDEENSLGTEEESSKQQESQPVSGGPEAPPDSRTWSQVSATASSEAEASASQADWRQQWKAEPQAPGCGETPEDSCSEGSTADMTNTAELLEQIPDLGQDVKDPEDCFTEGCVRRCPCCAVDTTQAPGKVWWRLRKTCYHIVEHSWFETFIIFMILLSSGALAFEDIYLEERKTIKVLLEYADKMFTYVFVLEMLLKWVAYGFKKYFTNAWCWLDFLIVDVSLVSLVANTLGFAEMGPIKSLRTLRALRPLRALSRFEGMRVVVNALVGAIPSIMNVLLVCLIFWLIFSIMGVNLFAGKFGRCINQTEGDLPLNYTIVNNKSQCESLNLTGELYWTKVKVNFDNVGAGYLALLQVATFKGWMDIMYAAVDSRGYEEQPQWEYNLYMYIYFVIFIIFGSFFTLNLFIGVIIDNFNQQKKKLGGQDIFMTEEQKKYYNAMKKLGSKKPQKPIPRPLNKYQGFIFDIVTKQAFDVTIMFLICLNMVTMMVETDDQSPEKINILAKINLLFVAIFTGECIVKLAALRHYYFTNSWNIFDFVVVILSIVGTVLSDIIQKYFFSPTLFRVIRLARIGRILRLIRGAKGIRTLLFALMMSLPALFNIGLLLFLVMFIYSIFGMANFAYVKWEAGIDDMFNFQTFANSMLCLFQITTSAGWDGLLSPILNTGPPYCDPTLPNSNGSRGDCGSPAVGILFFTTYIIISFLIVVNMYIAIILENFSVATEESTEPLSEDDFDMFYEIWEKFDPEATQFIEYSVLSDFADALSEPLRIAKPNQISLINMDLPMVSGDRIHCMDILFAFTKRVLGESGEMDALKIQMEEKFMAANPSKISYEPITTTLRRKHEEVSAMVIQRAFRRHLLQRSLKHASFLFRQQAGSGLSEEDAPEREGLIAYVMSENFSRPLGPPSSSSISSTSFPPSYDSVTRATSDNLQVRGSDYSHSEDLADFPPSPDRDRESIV

SMILES | ratio of Nav 1.5:Nav 1.7 potency, determined by PatchXpress measurement [1] | IC50 [2]
Cl.O=c1oc2cc(S(=O)(=O)Nc3ncns3)c(F)cc2n1Cc1cccc2c1CC(N1CC(F)(F)C1)CC2 (stereo not drawn) [Compound 19-6, 3-((7-(3,3-difluoroazetidin-1-yl)-5,6,7,8-tetrahydronaphthalen-1-yl)methyl)-5-fluoro-2-oxo-N-(1,2,4-thiadiazol-5-yl)-2,3-dihydrobenzo[d]oxazole-6-sulfonamide hydrochloride] | 103 | 118 nM
CNC1CCc2cccc(Cn3c(=O)oc4cc(S(=O)(=O)Nc5ncns5)c(F)cc43)c2C1 (racemic) [Compound 23-26, (+/−)-5-fluoro-3-{[7-(methylamino)-5,6,7,8-tetrahydronaphthalen-1-yl]methyl}-2-oxo-N-1,2,4-thiadiazol-5-yl-2,3-dihydro-1,3-benzoxazole-6-sulfonamide] | 2451 | 12 nM
C[C@H](c1ccccc1C#CCN1CCC1)n1c(=O)oc2cc(S(=O)(=O)Nc3ncns3)c(F)cc21 [Compound 17-18, 3-{(1R)-1-[2-(3-azetidin-1-ylprop-1-yn-1-yl)phenyl]ethyl}-5-fluoro-2-oxo-N-1,2,4-thiadiazol-5-yl-2,3-dihydro-1,3-benzoxazole-6-sulfonamide] | 1085 | 28 nM
C[C@H](c1ccccc1CN(C)C)n1c(=O)oc2cc(S(=O)(=O)Nc3ncns3)c(F)cc21 [Compound 18-5, 3-[(1R)-1-{2-[(dimethylamino)methyl]phenyl}ethyl]-5-fluoro-2-oxo-N-1,2,4-thiadiazol-5-yl-2,3-dihydro-1,3-benzoxazole-6-sulfonamide] | 525 | 13 nM
O=c1oc2cc(S(=O)(=O)Nc3nccs3)c(F)cc2n1C1CCCc2ccncc21 (stereo not drawn) [Compound 43-3, 5-fluoro-2-oxo-3-(5,6,7,8-tetrahydroisoquinolin-8-yl)-N-1,3-thiazol-2-yl-2,3-dihydro-1,3-benzoxazole-6-sulfonamide] | 91 | 550 nM
C[C@H](c1ccccc1C#CCNS(C)(=O)=O)n1c(=O)oc2cc(S(=O)(=O)Nc3ncns3)c(Br)cc21 [Compound 36-4, 5-bromo-3-[(1R)-1-(2-{3-[(methylsulfonyl)amino]prop-1-yn-1-yl}phenyl)ethyl]-2-oxo-N-1,2,4-thiadiazol-5-yl-2,3-dihydro-1,3-benzoxazole-6-sulfonamide] | 36 | 169 nM
CNCC#Cc1ccccc1[C@@H](C)n1c(=O)oc2cc(S(=O)(=O)Nc3ncns3)c(F)cc21 [Compound 17-11, 5-fluoro-3-[(1R)-1-{2-[3-(methylamino)prop-1-yn-1-yl]phenyl}ethyl]-2-oxo-N-1,2,4-thiadiazol-5-yl-2,3-dihydro-1,3-benzoxazole-6-sulfonamide] | 589 | 51 nM
C[C@H](c1cccc2ccncc12)n1c(=O)oc2cc(S(=O)(=O)Nc3ncns3)c(F)cc21 [Compound 14-8, 5-fluoro-3-[(1R)-1-isoquinolin-8-ylethyl]-2-oxo-N-1,2,4-thiadiazol-5-yl-2,3-dihydro-1,3-benzoxazole-6-sulfonamid] | 114 | 71 nM
C[C@H](c1cccc(C#CC2(N)CCCCC2)c1)n1c(=O)oc2cc(S(=O)(=O)Nc3ncns3)c(F)cc21 [Compound 30-4] | 309 | 10 nM
C[C@H](c1ccccc1C#CCN)n1c(=O)oc2cc(S(=O)(=O)Nc3ncns3)c(Br)cc21 [Compound 35-6, 3-{(1R)-1-[2-(3-aminoprop-1-yn-1-yl)phenyl]ethyl}-5-bromo-2-oxo-N-1,2,4-thiadiazol-5-yl-2,3-dihydro-1,3-benzoxazole-6-sulfonamide] | 334 | 27 nM
CC(c1cccc(-c2cccnc2)c1)n1c(=O)oc2cc(S(=O)(=O)Nc3ncns3)c(F)cc21 (stereo not drawn) [Compound 29-4, 5-fluoro-2-oxo-3-[1-(3-pyridin-3-ylphenyl)ethyl]-N-1,2,4-thiadiazol-5-yl-2,3-dihydro-1,3-benzoxazole-6-sulfonamide] | 57 | 162 nM
O=c1oc2cc(S(=O)(=O)Nc3nccs3)c(F)cc2n1Cc1cccc2c1CNCC2F (single isomer, unassigned) [Compound 43-27, (R or S)-5-fluoro-3-[(4-fluoro-1,2,3,4-tetrahydroisoquinolin-8-yl)methyl]-2-oxo-N-1,3-thiazol-2-yl-2,3-dihydro-1,3-benzoxazole-6-sulfonamide] | 282 | 106 nM
O=c1oc2cc(S(=O)(=O)Nc3ncns3)c(F)cc2n1Cc1cccc2c1CC(NCc1ccccc1)CC2 (racemic) [Compound 23-23, (+/−)-3-{[7-(benzylamino)-5,6,7,8-tetrahydronaphthalen-1-yl]methyl}-5-fluoro-2-oxo-N-1,2,4-thiadiazol-5-yl-2,3-dihydro-1,3-benzoxazole-6-sulfonamide] | 502 | 24 nM
C[C@H](c1ccccc1C1=CCN(S(C)(=O)=O)CC1)n1c(=O)oc2cc(S(=O)(=O)Nc3ncns3)c(F)cc21 [Compound 36-3, 5-fluoro-3-[(1R)-1-{2-[1-(methylsulfonyl)-1,2,3,6-tetrahydropyridin-4-yl]phenyl}ethyl]-2-oxo-N-1,2,4-thiadiazol-5-yl-2,3-dihydro-1,3-benzoxazole-6-sulfonamide] | 88 | 255 nM
Cc1ccc2c(c1)C(n1c(=O)oc3cc(S(=O)(=O)Nc4nccs4)c(F)cc31)CCC2 (stereo not drawn) [Compound 43-7, 5-fluoro-3-(7-methyl-1,2,3,4-tetrahydronaphthalen-1-yl)-2-oxo-N-1,3-thiazol-2-yl-2,3-dihydro-1,3-benzoxazole-6-sulfonamide] | 137 | 111 nM
COC(=O)[C@H](c1ccccc1)n1c(=O)oc2cc(S(=O)(=O)Nc3nccs3)ccc21 [Compound 41-6, methyl (2S)-[2-oxo-6-(1,3-thiazol-2-ylsulfamoyl)-1,3-benzoxazol-3(2H)-yl](phenyl)ethanoate] | 54 | 553 nM
Cc1cccc2c1CCCC2n1c(=O)oc2cc(S(=O)(=O)Nc3ncns3)c(F)cc21 (stereo not drawn) [Compound 39-5, 5-fluoro-3-(5-methyl-1,2,3,4-tetrahydronaphthalen-1-yl)-2-oxo-N-1,2,4-thiadiazol-5-yl-2,3-dihydro-1,3-benzoxazole-6-sulfonamide] | 14 | 261 nM
O=c1oc2cc(S(=O)(=O)Nc3nccs3)c(F)cc2n1C1CCCc2cccnc21 (stereo not drawn) [Compound 43-4, 5-fluoro-2-oxo-3-(5,6,7,8-tetrahydroquinolin-8-yl)-N-1,3-thiazol-2-yl-2,3-dihydro-1,3-benzoxazole-6-sulfonamide] | 71 | 424 nM
CC(=O)NC1CCc2cccc(Cn3c(=O)oc4cc(S(=O)(=O)Nc5ncns5)c(F)cc43)c2C1 (stereo not drawn) [Compound 22-1, N-(8-((6-(N-(1,2,4-thiadiazol-5-yl)sulfamoyl)-5-fluoro-2-oxobenzo[d]oxazol-3(2H)-yl)methyl)-1,2,3,4-tetrahydronaphthalen-2-yl)acetamide] | 172 | 175 nM
O=c1oc2cc(S(=O)(=O)Nc3ncns3)c(F)cc2n1C1COCc2ccccc21 (stereo not drawn) [Compound 39-8, 3-(3,4-dihydro-1H-isochromen-4-yl)-5-fluoro-2-oxo-N-1,2,4-thiadiazol-5-yl-2,3-dihydro-1,3-benzoxazole-6-sulfonamide] | 29 | 204 nM
O=c1oc2cc(S(=O)(=O)Nc3ncns3)c(F)cc2n1C[C@H]1C[C@@H]1I [Compound 11-9, 5-fluoro-3-{[(1R,2S)-2-iodocyclopropyl]methyl}-2-oxo-N-1,2,4-thiadiazol-5-yl-2,3-dihydro-1,3-benzoxazole-6-sulfonamide] | 56 | 301 nM
C[C@H](c1cccc2cncn12)n1c(=O)oc2cc(S(=O)(=O)Nc3ncns3)c(F)cc21 [Compound 15-3, (R)-5-Fluoro-3-(1-(imidazo[1,5-a]pyridin-5-yl)ethyl)-2-oxo-N-(1,2,4-thiadiazol-5-yl)-2,3-dihydrobenzo[d]oxazole-6-sulfonamide] | 122 | 134 nM
C[C@H](c1ccccc1C#CCO)n1c(=O)oc2cc(S(=O)(=O)Nc3ncns3)c(F)cc21 [Compound 17-9, 5-fluoro-3-{(1R)-1-[2-(3-hydroxyprop-1-yn-1-yl)phenyl]ethyl}-2-oxo-N-1,2,4-thiadiazol-5-yl-2,3-dihydro-1,3-benzoxazole-6-sulfonamide] | 45 | 58 nM
C[C@H](c1ccccc1CN1CCC(F)(F)C1)n1c(=O)oc2cc(S(=O)(=O)Nc3ncns3)c(F)cc21 [Compound 18-3, 3-[(1R)-1-{2-[(3,3-difluoropyrrolidin-1-yl)methyl]phenyl}ethyl]-5-fluoro-2-oxo-N-1,2,4-thiadiazol-5-yl-2,3-dihydro-1,3-benzoxazole-6-sulfonamide] | 15 | 768 nM
